From patent US10364256B2 (GlaxoSmithKline Intellectual Property Development Limited, priority 2015, dated 2019)

Tests used:
[1] = test system: NQO1 specific enzyme activity in BEAS-2B cells (marker for NRF2 activation); experiment: BEAS-2B NQO1 MTT Assay; format: cell-based; conditions: Homo sapiens, compound incubated 48 hours, read-out: EC50 (NQO1 specific enzyme activity induction)
Procedure, shortened: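 BEAS-2B cells treated with compound for 48 h at 37 °C, then lysed; NQO1 activity in lysates measured kinetically by MTT reduction at A570 over 30 min. pEC50 from 3-parameter fit of ΔOD/min versus log concentration; lysate also taken for Cell Titer Glo.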

[2] = target: T1, full length Keap1 protein / full length NRF2 protein (Homo sapiens, UniProt Q14145); experiment: NRF2-Keap1 TR-FRET Low Protein Assay; format: binding; conditions: 1.25 nM Keap1 FlagHis and 2.5 nM biotin-NRF2 added
T1 construct: full length NRF2 protein and full length Keap1 protein (Keap1 exists a dimer) are used; His
Procedure, shortened: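 Flag-tagged full-length Keap1 was preincubated with compound (3-fold series) for 2.25 h at 37 °C in Tris pH 8.0/MgCl2/NaCl/BSA/DTT/CHAPS. Biotin-Avi-NRF2 (added at 2.5 nM) was then bound for 1.25 h at 4 °C. Eu-streptavidin/anti-Flag-APC TR-FRET (665/615 nm) was read after 1 h at RT, and pIC50 came from a four-parameter fit.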

T1 sequence (Q14145 whole entry): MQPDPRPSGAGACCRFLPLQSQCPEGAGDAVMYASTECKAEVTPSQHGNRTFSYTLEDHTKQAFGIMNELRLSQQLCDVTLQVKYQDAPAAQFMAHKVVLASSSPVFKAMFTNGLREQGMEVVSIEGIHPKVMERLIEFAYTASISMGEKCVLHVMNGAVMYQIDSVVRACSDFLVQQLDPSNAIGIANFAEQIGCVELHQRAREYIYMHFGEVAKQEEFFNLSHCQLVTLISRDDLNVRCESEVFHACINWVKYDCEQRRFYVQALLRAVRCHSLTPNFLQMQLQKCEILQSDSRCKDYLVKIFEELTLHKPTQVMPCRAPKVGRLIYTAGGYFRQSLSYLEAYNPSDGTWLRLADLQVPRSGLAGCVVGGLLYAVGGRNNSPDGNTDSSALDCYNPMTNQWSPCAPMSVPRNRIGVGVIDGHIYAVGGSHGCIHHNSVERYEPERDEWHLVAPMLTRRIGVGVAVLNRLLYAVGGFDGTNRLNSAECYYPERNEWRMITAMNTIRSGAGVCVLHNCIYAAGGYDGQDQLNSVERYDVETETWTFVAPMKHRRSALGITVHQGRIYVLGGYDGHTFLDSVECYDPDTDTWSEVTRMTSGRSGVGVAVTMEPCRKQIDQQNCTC

Compound	IC50 [2]	EC50 [1]
C[C@@H]1CN(Cc2cccc(-c3cccc(-n4ncc(C(=O)O)c4[C@@H]4C[C@H]4c4cn(C)nn4)c3)c2)Cc2ccccc2O1 [Example 253]	< 10 nM	100 to 1000 nM
CC1(C)CCc2cnn(-c3cccc(-c4cccc(-n5ncc(C(=O)O)c5C5CC5)c4)c3)c21 [Example 63, 5-Cyclopropyl-1-(3′-(6,6-dimethyl-5,6-dihydrocyclopenta[c]pyrazol-1(4H)-yl)-[1,1′-biphenyl]-3-yl)-1H-pyrazole-4-carboxylic Acid]	10 to 100 nM	100 to 1000 nM
Cn1cc([C@@H]2C[C@H]2c2c(C(=O)O)cnn2-c2cccc(-c3cccc(-n4ncc5c4C(C)(C)CC5)c3)n2)nn1 (racemic) [Example 251, 1-(6-(3-(6,6-Dimethyl-5,6-dihydrocyclopenta[c]pyrazol-1(4H)-yl)phenyl)pyridin-2-yl)-5-(trans-2-(1-methyl-1H-1,2,3-triazol-4-yl)cyclopropyl)-1H-pyrazole-4-carboxylic Acid]	< 10 nM	100 to 1000 nM
O=C(O)c1cnn(-c2cccc(-c3cccc(C(=O)N(CC4CC4)CC4CC4)c3F)c2)c1C1CC1 [Example 8, 1-(3-{3-[Bis(cyclopropylmethyl)carbamoyl]-2-fluorophenyl}phenyl)-5-cyclopropyl-1H-pyrazole-4-carboxylic Acid]	10 to 100 nM	100 to 1000 nM
CC1CCCN(C(=O)c2cccc(-c3cccc(-n4ncc(C(=O)O)c4C4CC4)c3)c2F)CC1 (stereo not shown) [Example 29, 5-Cyclopropyl-1-{3-[2-fluoro-3-(4-methylazepane-1-carbonyl)phenyl]phenyl}-1H-pyrazole-4-carboxylic Acid]	10 to 100 nM	100 to 1000 nM
CCC1Cc2ccccc2CN(Cc2cccc(-c3cccc(-n4ncc(C(=O)O)c4[C@@H]4C[C@H]4c4cn(C)nn4)c3)c2)C1 (relative stereo) [Example 252, 1-(3′-((4-Ethyl-4,5-dihydro-1H-benzo[c]azepin-2(3H)-yl)methyl)-[1,1′-biphenyl]-3-yl)-5-(trans-2-(1-methyl-1H-1,2,3-triazol-4-yl)cyclopropyl)-1H-pyrazole-4-carboxylic Acid]	10 to 100 nM	100 to 1000 nM
Cn1cc([C@@H]2C[C@H]2c2c(C(=O)O)cnn2-c2cccc(-c3cccc(CN4Cc5ccccc5OC(C)(C)C4)c3)c2)nn1 (racemic) [Example 254, 1-(3′-((2,2-Dimethyl-2,3-dihydrobenzo[f][1,4]oxazepin-4(5H)-yl)methyl)-[1,1′-biphenyl]-3-yl)-5-(trans-2-(1-methyl-1H-1,2,3-triazol-4-yl)cyclopropyl)-1H-pyrazole-4-carboxylic Acid]	10 to 100 nM	100 to 1000 nM
CC(Oc1cccc(-c2cccc(-n3ncc(C(=O)O)c3[C@@H]3C[C@H]3c3cn(C)nn3)n2)c1)C1CCCCC1 (relative stereo) [Example 249, 1-(6-(3-(1-Cyclohexylethoxy)phenyl)pyridin-2-yl)-5-(trans-2-(1-methyl-1H-1,2,3-triazol-4-yl)cyclopropyl)-1H-pyrazole-4-carboxylic Acid]	< 10 nM	1 to 10 nM
CCC[C@@H]1CO[C@@H](C)CN1C(=O)c1cccc(-c2cccc(-n3ncc(C(=O)O)c3C3CC3)c2)c1F [Example 45, 5-cyclopropyl-1-(3-{2-fluoro-3-[(2S,5R)-2-methyl-5-propylmorpholine-4-carbonyl]phenyl}phenyl)-1H-pyrazole-4-carboxylic Acid]	10 to 100 nM	100 to 1000 nM
CC1(C)CCc2cnn(-c3cccc(-c4cccc(-n5ncc(C(=O)O)c5C(F)(F)F)c4)c3)c21 [Example 250, 1-(3′-(6,6-Dimethyl-5,6-dihydrocyclopenta[c]pyrazol-1(4H)-yl)-[1,1′-biphenyl]-3-yl)-5-(trifluoromethyl)-1H-pyrazole-4-carboxylic Acid]	100 to 1000 nM	100 to 1000 nM
CC1CCC(C)N(C(=O)c2cccc(-c3cccc(-n4ncc(C(=O)O)c4C4CC4)c3)c2F)C1 (stereo not shown) [Example 30, 5-Cyclopropyl-1-{3-[3-(2,5-dimethylpiperidine-1-carbonyl)-2-fluorophenyl]phenyl}-1H-pyrazole-4-carboxylic Acid]	100 to 1000 nM	100 to 1000 nM

More lines, main results first:

IC50 [2]	Compound	EC50 [1]
< 10 nM	Cn1cc([C@H]2C[C@@H]2c2c(C(=O)O)cnn2-c2cccc(-c3cccc(C(=O)N4CCCCCC4)c3F)c2)nn1 (racemic) [Example 260, 1-(2′-Fluoro-3′-(azepane-1-carbonyl)-[1,1′-biphenyl]-3-yl)-5-(trans-2-(1-methyl-1H-1,2,3-triazol-4-yl)cyclopropyl)-1H-pyrazole-4-carboxylic Acid]	100 to 1000 nM
< 10 nM	Cn1cc([C@H]2C[C@@H]2c2c(C(=O)O)cnn2-c2cccc(-c3cccc(C(=O)N4CCCCC4)c3F)c2)nn1 (racemic) [Example 258, 1-(2′-Fluoro-3′-(piperidine-1-carbonyl)-[1,1′-biphenyl]-3-yl)-5-(trans-2-(1-methyl-1H-1,2,3-triazol-4-yl)cyclopropyl)-1H-pyrazole-4-carboxylic Acid]	100 to 1000 nM
< 10 nM	CCOC[C@@H]1CCCN1C(=O)c1cccc(-c2cccc(-n3ncc(C(=O)O)c3[C@@H]3C[C@H]3c3cn(C)nn3)c2)c1F [Example 267]	100 to 1000 nM
< 10 nM	CC1CC(C)CN(C(=O)c2cccc(-c3cccc(-n4ncc(C(=O)O)c4[C@@H]4C[C@H]4c4cn(C)nn4)c3)c2F)C1 (mixture of isomers) [Example 263, 1-(3′-(3,5-Dimethylpiperidine-1-carbonyl)-2′-fluoro-[1,1′-biphenyl]-3-yl)-5-(2-(1-methyl-1H-1,2,3-triazol-4-yl)cyclopropyl)-1H-pyrazole-4-carboxylic Acid]	100 to 1000 nM
< 10 nM	CC(C)CN(C)C(=O)c1cccc(-c2cccc(-n3ncc(C(=O)O)c3[C@@H]3C[C@H]3c3cn(C)nn3)c2)c1F (racemic) [Example 266, 1-(2′-Fluoro-3′(isobutyl(methyl)carbamoyl)-[1,1′-biphenyl]-3-yl)-5-(trans-2-(1-methyl-1H-1,2,3-triazol-4-yl)cyclopropyl)-1H-pyrazole-4-carboxylic Acid]	100 to 1000 nM
< 10 nM	CCOC[C@H]1CCCN1C(=O)c1cccc(-c2cccc(-n3ncc(C(=O)O)c3[C@@H]3C[C@H]3c3cn(C)nn3)c2)c1F [Example 268]	100 to 1000 nM
10 to 100 nM	CC(C)CC1CCCCN1C(=O)c1cccc(-c2cccc(-n3ncc(C(=O)O)c3C3CC3)c2)c1F (stereo not shown) [Example 28, 5-Cyclopropyl-1-(3-{2-fluoro-3-[2-(2-methylpropyl)piperidine-1-carbonyl]phenyl}phenyl)-1H-pyrazole-4-carboxylic Acid]	100 to 1000 nM
< 10 nM	Cn1cc([C@H]2C[C@@H]2c2c(C(=O)O)cnn2-c2cccc(-c3cccc(C(=O)N4CCCC(C)(C)C4)c3F)c2)nn1 (racemic) [Example 259, 1-(2′-Fluoro-3′-(3,3-dimethylpiperidine-1-carbonyl)-[1,1′-biphenyl]-3-yl)-5-(trans-2-(1-methyl-1H-1,2,3-triazol-4-yl)cyclopropyl)-1H-pyrazole-4-carboxylic Acid]	100 to 1000 nM
< 10 nM	C[C@@H]1CCC[C@H](C)N1C(=O)c1cccc(-c2cccc(-n3ncc(C(=O)O)c3[C@@H]3C[C@H]3c3cn(C)nn3)c2)c1F (single isomer, unassigned) [Example 262]	10 to 100 nM
10 to 100 nM	CCCC1CCCCN1C(=O)c1cccc(-c2cccc(-n3ncc(C(=O)O)c3C3CC3)c2)c1F (stereo in doubt) [Example 54d, 5-Cyclopropyl-1-{3-[2-fluoro-3-((2R)-2-propylpiperidine-1-carbonyl)phenyl]phenyl}-1H-pyrazole-4-carboxylic Acid]	100 to 1000 nM
10 to 100 nM	O=C(O)c1cnn(-c2cccc(-c3cccc(C(=O)N4CCCCC4CCC(F)(F)F)c3F)c2)c1C1CC1 (stereo not shown) [Example 38, 5-Cyclopropyl-1-(3-{2-fluoro-3-[2-(3,3,3-trifluoropropyl)piperidine-1-carbonyl]phenyl}phenyl)-1H-pyrazole-4-carboxylic Acid]	100 to 1000 nM
< 10 nM	COCC1CCCCN1C(=O)c1cccc(-c2cccc(-n3ncc(C(=O)O)c3C3C[C@H]3c3cn(C)nn3)c2)c1F (mixture of isomers) [Example 264, 1-(3′-(2-(Methoxymethyl)piperidine-1-carbonyl)-2′-fluoro-[1,1′-biphenyl]-3-yl)-5-(trans-2-(1-methyl-1H-1,2,3-triazol-4-yl)cyclopropyl)-1H-pyrazole-4-carboxylic Acid]	100 to 1000 nM
10 to 100 nM	CCC[C@@H]1CCCCN1C(=O)c1cccc(-c2cccc(-n3ncc(C(=O)O)c3CCc3cn(C)nn3)c2)c1F [Example 55, (R)-1-(2′-Fluoro-3′-(2-propylpiperidine-1-carbonyl)-[1,1′-biphenyl]-3-yl)-5-(2-(1-methyl-1H-1,2,3-triazol-4-yl)ethyl)-1H-pyrazole-4-carboxylic Acid]	1000 to 10000 nM
< 10 nM	C[C@@H]1CCC[C@H](C)N1C(=O)c1cccc(-c2cccc(-n3ncc(C(=O)O)c3[C@H]3C[C@@H]3c3cn(C)nn3)c2)c1F (single isomer, unassigned) [Example 261]	10 to 100 nM
10 to 100 nM	O=C(O)c1cnn(-c2cccc(-c3cccc(C(=O)N4CCCC5CCCCC54)c3F)c2)c1C1CC1 (stereo not shown) [Example 31, 5-Cyclopropyl-1-{3-[3-(decahydroquinoline-1-carbonyl)-2-fluorophenyl]phenyl}-1H-pyrazole-4-carboxylic Acid]	100 to 1000 nM
